The source of these data is PubChem BioAssay AID651642 (Sanford-Burnham Center for Chemical Genomics, 2012).

The subject of one experiment is HL-1. As to the kind of experiment: cardiomyocyte survival under oxidative or metabolic stress – cell-based, panel, H9c2 and HL-1, H2O2, 2-deoxyglucose, ATP luminescence, SAR follow-up (AID 651642).
The next experiment relates to H9c2. The description is as above.
Where [1] appears, read: H9c2/HL-1 cardiomyocyte 2-deoxyglucose damage, run 1, with 2-deoxyglucose.
Setting [2] is: H9c2/HL-1 cardiomyocyte 2-deoxyglucose damage, run 2, with 2-deoxyglucose.
Where [3] appears, read: H9c2/HL-1 cardiomyocyte 2-deoxyglucose damage, run 3, with 2-deoxyglucose.
[4] abbreviates: H9c2/HL-1 cardiomyocyte 2-deoxyglucose damage, run 4, with 2-deoxyglucose.
Setting [5] is: H9c2/HL-1 cardiomyocyte H2O2 oxidative damage, run 1, with H2O2.
The mark [6] stands for this setting: H9c2/HL-1 cardiomyocyte H2O2 oxidative damage, run 2, with H2O2.
The mark [7] stands for this setting: H9c2/HL-1 cardiomyocyte H2O2 oxidative damage, run 3, with H2O2.
Where [8] appears, read: H9c2/HL-1 cardiomyocyte H2O2 oxidative damage, run 4, with H2O2.
Setting [9] is: H9c2/HL-1 cardiomyocyte 2-deoxyglucose damage, mean of runs, with 2-deoxyglucose, mean IC50 across panel.
The mark [10] stands for this setting: H9c2/HL-1 cardiomyocyte H2O2 oxidative damage, mean of runs, with H2O2, mean IC50 across panel.

In the case of `CCOC(=O)c1cccc(NC(=O)CNC(=O)c2cc(-c3cc(OC)c(OC)c(OC)c3)nc3c(Cl)cccc23)c1`, the IC50 (commonly the midpoint of a concentration-inhibition curve) in the experiment with HL-1 (setting [1]) is 3.56 µM; in the experiment with HL-1 (setting [2]), 5.79 µM; with HL-1 (setting [3]), above 79 µM; in the experiment with HL-1 (setting [4]), above 79 µM; in the experiment on HL-1 (setting [5]) it was above 79 µM; in the experiment on HL-1 (setting [6]), above 79 µM. The IC50 is 4.99 µM in the experiment with HL-1 (setting [7]); 15.4 µM in the experiment with HL-1 (setting [8]); above 79 µM in the experiment with H9c2 (setting [9]); above 79 µM with H9c2 (setting [1]); above 79 µM in the experiment with H9c2 (setting [2]); above 79 µM with H9c2 (setting [3]). Besides, the IC50 is above 79 µM with H9c2 (setting [4]); 5.52 µM in the experiment on H9c2 (setting [5]); 8.8 µM in the experiment with H9c2 (setting [6]); above 79 µM in the experiment with H9c2 (setting [7]); 3.36 µM in the experiment with H9c2 (setting [8]).
As to `COc1ccc2c(c1OC)C(=O)N1c3ccccc3C(=O)N(Cc3ccncc3)C21` (stereo not given), the IC50 with HL-1 (setting [9]), in the experiment on HL-1 (setting [1]), in the experiment with HL-1 (setting [2]), in the experiment on HL-1 (setting [3]), with HL-1 (setting [4]) and with HL-1 (setting [5]) was above 79 µM throughout. For the same compound, the IC50 in the experiment with HL-1 (setting [6]), with HL-1 (setting [7]), with HL-1 (setting [8]), in the experiment on H9c2 (setting [9]), in the experiment on H9c2 (setting [1]) and with H9c2 (setting [2]) was above 79 µM in each case. Also, the IC50 was above 79 µM in the experiment on H9c2 (setting [3]); above 79 µM in the experiment with H9c2 (setting [4]); above 79 µM with H9c2 (setting [5]); 55.3 µM in the experiment on H9c2 (setting [6]); above 79 µM with H9c2 (setting [7]); above 79 µM in the experiment with H9c2 (setting [8]).
On to `COc1ccc(NC(=O)CNC(=O)c2cc(-c3cc(OC)c(OC)c(OC)c3)nc3ccccc23)cc1`, for which the IC50 in the experiment with HL-1 (setting [9]) came to 6.65 µM; with HL-1 (setting [1]) it was 4.04 µM; in the experiment with HL-1 (setting [2]), 4.29 µM; in the experiment with HL-1 (setting [3]) it was 8.55 µM; in the experiment on HL-1 (setting [4]), 9.7 µM; in the experiment with HL-1 (setting [10]), 7.15 µM. Further, the IC50 in the experiment on HL-1 (setting [5]) came to 5.04 µM; in the experiment with HL-1 (setting [6]), 8.88 µM; in the experiment with HL-1 (setting [7]) it was 7 µM; with HL-1 (setting [8]), 7.7 µM; with H9c2 (setting [9]), 12.8 µM; with H9c2 (setting [1]), 13.8 µM. Moreover, the 50% inhibitory concentration (IC50) was 15.2 µM in the experiment with H9c2 (setting [2]); 10.4 µM in the experiment on H9c2 (setting [3]); 12 µM with H9c2 (setting [4]); 3.97 µM in the experiment with H9c2 (setting [5]); 4.53 µM with H9c2 (setting [6]); above 79 µM with H9c2 (setting [7]). Besides, the IC50 in the experiment on H9c2 (setting [8]) is above 79 µM.
In the case of `COc1ccc2c(c1OC)C(=O)N1c3ccccc3C(=O)N(Cc3ccccc3)C21` (stereo not given), the IC50 in the experiment on HL-1 (setting [9]) is 10.2 µM; in the experiment on HL-1 (setting [1]), 3.57 µM; in the experiment with HL-1 (setting [2]) it was 4.36 µM; with HL-1 (setting [3]), 13.8 µM; in the experiment on HL-1 (setting [4]), 18.9 µM; in the experiment on HL-1 (setting [10]), above 79 µM. Also, the IC50 is above 79 µM in the experiment on HL-1 (setting [5]); above 79 µM with HL-1 (setting [6]); above 79 µM in the experiment on HL-1 (setting [7]); above 79 µM with HL-1 (setting [8]); 44.9 µM with H9c2 (setting [1]); 49.1 µM in the experiment with H9c2 (setting [2]). The IC50 in the experiment with H9c2 (setting [3]) is above 79 µM; with H9c2 (setting [4]) it was above 79 µM; in the experiment on H9c2 (setting [5]), 3.56 µM; in the experiment on H9c2 (setting [6]), 4.07 µM; in the experiment on H9c2 (setting [7]), above 79 µM; in the experiment on H9c2 (setting [8]) it was above 79 µM.
As to `COc1ccc2c(c1OC)C(=O)N1c3ccccc3C(=O)N(Cc3ccccc3Br)C21` (stereo not given), the IC50 in the experiment with HL-1 (setting [9]) is 13.4 µM; in the experiment on HL-1 (setting [1]), 2.54 µM; in the experiment with HL-1 (setting [2]), 2.85 µM; with HL-1 (setting [3]), 13.9 µM; in the experiment on HL-1 (setting [4]) it was 34.4 µM; in the experiment on HL-1 (setting [10]), above 79 µM. Besides, the IC50 in the experiment on HL-1 (setting [5]), with HL-1 (setting [6]), with HL-1 (setting [7]), in the experiment with HL-1 (setting [8]), in the experiment on H9c2 (setting [9]) and with H9c2 (setting [1]) was above 79 µM each time. Moreover, the half-maximal inhibitory concentration (IC50) with H9c2 (setting [2]) was above 79 µM; in the experiment on H9c2 (setting [3]), above 79 µM; with H9c2 (setting [4]), above 79 µM; in the experiment on H9c2 (setting [5]), above 79 µM; in the experiment with H9c2 (setting [6]), 2.03 µM; in the experiment with H9c2 (setting [7]), above 79 µM. The compound also gave an IC50 with H9c2 (setting [8]) above 79 µM.
Consider `COc1ccc2nc(-c3cc(OC)c(OC)c(OC)c3)cc(C(=O)NCC(=O)Nc3cccc(C(C)=O)c3)c2c1`, for which the IC50 was 2.9 µM with HL-1 (setting [9]); 1.27 µM in the experiment on HL-1 (setting [1]); 3.22 µM in the experiment with HL-1 (setting [2]); 3.47 µM in the experiment with HL-1 (setting [3]); 3.64 µM in the experiment on HL-1 (setting [4]); 5.12 µM in the experiment with HL-1 (setting [10]). Also, the IC50 is 4.48 µM with HL-1 (setting [5]); 6.94 µM in the experiment with HL-1 (setting [6]); 4.08 µM with HL-1 (setting [7]); 5 µM in the experiment on HL-1 (setting [8]); 2.63 µM in the experiment on H9c2 (setting [9]); 3.05 µM in the experiment with H9c2 (setting [1]). The IC50 was 3.53 µM in the experiment with H9c2 (setting [2]); 1.89 µM with H9c2 (setting [3]); 2.03 µM in the experiment with H9c2 (setting [4]); 0.761 µM in the experiment with H9c2 (setting [5]); 0.868 µM with H9c2 (setting [6]); above 79 µM in the experiment on H9c2 (setting [7]). This compound also yielded an IC50 with H9c2 (setting [8]) of 0.324 µM.
